# Results as given in patent publication US6794495B1, “Composition comprising extensin and, optionally, pectic polysaccharides” (New Nordic Danmark APS, priority 1998, dated 2004).
# System: Tetrahymena thermophila cells
# Assay: Oligo-cell experiments: cloning efficiency in synthetic nutrient medium
# Assay type: cell-based
# Source text: The invention was the result of a laboratory test program using in vivo cell signalling model. The application of a nutritionally complete synthetic (NCS) medium in an oligo-cell experimental research program in which cells demise (or eventually have a prolonged lag-phase) was used for gaining scientific information related to determining the effectiveness of pectins and pectin and extensin combinations as biochemical messengers. An additional control was supplemented with cephalin, that activates cells to multiplication. The effect of an activator added to the NCS medium is compared directly to the control that demises. Apparently, any compound or combination of compounds can be examined in light of the question whether it can activate a cell to survive and/or proliferate. From the beginning of the 1980's the effect of biochemical messengers has been examined with cells grown in an NCS medium free of proteins, lipids, and sugars. Signalling applies to unicellular and multicellular organisms, and the idea of NCS media is that a biochemical messenger can be tested for its biological effect on the cells to gain insight in cellular signalling mechanisms. Biochemical messengers are related to the four biological cornerstones of the eukaryotic cell: survival, proliferation, differentiation, and programmed cell death.
# In oligo-cell experiments, different pectins and combinations of pectins and extensins were examined for their ability to activate Tetrahymena thermophila cells to survival and/or proliferation. The Tetrahymena cell has nutritional requirements similar to those of animals. They contain subcellular organelles such as mitochondria and peroxisomes, which are essential for the development of regulatory mechanisms in cellular metabolism. […]
# Cloning efficiencies were determined from cell multiplications in a synthetic nutrient medium without and with supplements. […]
substance,measurement,setting,value
cephalin,Cloning efficiencies,"50 mg/L in synthetic nutrient medium, experiments with cell multiplication after 30 hours / total experiments, about two cells in two mL, first experiment",15/15
same,Cloning efficiencies,"50 mg/L in synthetic nutrient medium, experiments with cell multiplication after 30 hours / total experiments, about two cells in two mL, second experiment (sugar beet fiber)",15/15
same,Cloning efficiencies,"controls supplemented with cephalin, evaluated after 30 hours",92%
